Experimental data: patent publication US20260365670A1, “EGFR INHIBITORS AND USES THEREOF” (DIZAL (JIANGSU) PHARMACEUTICAL CO., LTD., priority 2022, published 2026)
Where two headings read alike, the source gives them in different places.

Tests used:
EGFR[T790M/C797S/L858R] = biological target: T1, EGFR[T790M/C797S/L858R] (Homo sapiens, UniProt P00533, C797S/L858R/T790M); assay: Inhibition of EGFR[T790M/C797S/L858R] biochemical enzymatic activity (HTRF); conditions: EGFR T790M-C797S-L858R, 1 mM ATP, 1 h, room temperature, read-out: IC50 (nM) @T790M- C797S - L858R
T1 construct: purchased Carna Bio
Summary of the method: (§1)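 Each enzyme was first added to plates holding compound. The reaction was then started with ATP (1 mM) and peptide substrate (1 μM). It was stopped after 1 h at room temperature with EDTA detection reagents and read at 615/665 nm to derive IC50s.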

[1] = system: Ba/F3 cells expressing EGFR mutations; assay: Cell proliferation assay, Ba/F3 cells expressing EGFR mutations (CellTiter-Glo, 72 hours); format: cell-based; conditions: CellTiter-Glo
Summary of the method: (§2)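 Ba/F3 cells (5000/well) and PC-9 cells (500/well, RPMI1640 with 10% FBS) were plated overnight and then dosed with a compound concentration series. Viable cells were read at day 0 (G0) and after treatment (G3). GI50 came from curve fits of G0-corrected proliferation relative to DMSO.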

A-431 = assay: Cell proliferation GI50, A-431 cells (Table 6); format: cell-based
EGFR wild type = biological target: T2, EGFR wild type (Homo sapiens, UniProt P00533); assay: Inhibition of EGFR wild type biochemical enzymatic activity (HTRF); conditions: EGFR WT, 1 mM ATP, 1 h, room temperature, read-out: IC50 (nM) @WT
T2 construct: purchased Carna Bio
Summary of the method: as §1

[2] = biological target: T3, EGFR[T790M/C797S/d746-750] (Homo sapiens, UniProt P00533, C797S/DEL746-750/T790M); assay: Inhibition of EGFR[T790M/C797S/d746-750] biochemical enzymatic activity (HTRF); conditions: EGFR T790M-C797S-Del19, 1 mM ATP, 1 h, room temperature, read-out: IC50 (nM) @T790M - C797S - Del19
T3 construct: purchased Carna Bio
Summary of the method: as §1

EGFR (C797S L858R) = biological target: T4, EGFR (C797S L858R) (Homo sapiens, UniProt P00533, C797S/L858R); assay: Inhibition of EGFR (C797S L858R) biochemical enzymatic activity (HTRF); conditions: EGFR L858-C797S, 1 mM ATP, 1 h, room temperature, read-out: IC50 (nM) @L858-C797S
T4 construct: purchased signalchem
Summary of the method: as §1

EGFR (d746-750 C797S) = biological target: T5, EGFR (d746-750 C797S) (Homo sapiens, UniProt P00533, C797S/DEL746-750); assay: Inhibition of EGFR (d746-750 C797S) biochemical enzymatic activity (HTRF); conditions: EGFR Del19-C797S, 1 mM ATP, 1 h, room temperature, read-out: IC50 (nM) @Del19-C797S
T5 construct: purchased signalchem
Summary of the method: as §1

PC-9 = assay: Cell proliferation assay, PC-9 cells (CellTiter-Glo, 72 hours); format: cell-based; conditions: PC9 cells, CellTiter-Glo, read-out: PC9 GI50
Summary of the method: as §2

EGFR Exon19Del/T790M = biological target: T6, EGFR Exon19Del/T790M (Homo sapiens, UniProt P00533, DEL746-750/T790M); assay: Inhibition of EGFR Exon19Del/T790M biochemical enzymatic activity (HTRF); conditions: EGFR Del19-T790M, 1 mM ATP, 1 h, room temperature, read-out: IC50 (nM) @Del19-T790M
T6 construct: purchased Carna Bio
Summary of the method: as §1

EGFR L858R/T790M = biological target: T7, EGFR L858R/T790M (Homo sapiens, UniProt P00533, L858R/T790M); assay: Inhibition of EGFR L858R/T790M biochemical enzymatic activity (HTRF); conditions: EGFR L858R-T790M, 1 mM ATP, 1 h, room temperature, read-out: IC50 (nM) @L858R-T790M
T7 construct: purchased Carna Bio
Summary of the method: as §1

EGFR Exon19Del = biological target: T8, EGFR Exon19Del (Homo sapiens, UniProt P00533, DEL746-750); assay: Inhibition of EGFR Exon19Del biochemical enzymatic activity (HTRF); conditions: EGFR Del19, 1 mM ATP, 1 h, room temperature, read-out: IC50 @Del19
T8 construct: purchased Carna Bio
Summary of the method: as §1

EGFR L858R = biological target: T9, EGFR L858R (Homo sapiens, UniProt P00533, L858R); assay: Inhibition of EGFR L858R biochemical enzymatic activity (HTRF); conditions: 1 mM ATP, 1 h, room temperature, read-out: IC50 (nM) @L858R
T9 construct: purchased Carna Bio
Summary of the method: as §1

[3] = BaF3 cells, EGFR DEL19-C797S, read-out: DEL19-C797S/BaF3 GI50
[4] = BaF3 cells, EGFR DEL19-T790-C797S, read-out: DEL19-T790-C797S/BaF3 GI50
[5] = BaF3 cells, EGFR L858R, read-out: L858R/BaF3 GI50
[6] = BaF3 cells, EGFR L858R-C797S, read-out: L858R-C797S/BaF3 GI50
[7] = BaF3 cells, EGFR L858R-T790-C797S, read-out: L858R-T790-C797S/BaF3 GI50
[8] = BaF3 cells, EGFR L858R-T790M, read-out: L858R-T790M/BaF3 GI50
[9] = EGFR DEL19-T790M, read-out: DEL19-T790M GI50
[10] = Homo sapiens, A-431, A-431 cells

T4 sequence (P00533 25-1210 C797S/L858R): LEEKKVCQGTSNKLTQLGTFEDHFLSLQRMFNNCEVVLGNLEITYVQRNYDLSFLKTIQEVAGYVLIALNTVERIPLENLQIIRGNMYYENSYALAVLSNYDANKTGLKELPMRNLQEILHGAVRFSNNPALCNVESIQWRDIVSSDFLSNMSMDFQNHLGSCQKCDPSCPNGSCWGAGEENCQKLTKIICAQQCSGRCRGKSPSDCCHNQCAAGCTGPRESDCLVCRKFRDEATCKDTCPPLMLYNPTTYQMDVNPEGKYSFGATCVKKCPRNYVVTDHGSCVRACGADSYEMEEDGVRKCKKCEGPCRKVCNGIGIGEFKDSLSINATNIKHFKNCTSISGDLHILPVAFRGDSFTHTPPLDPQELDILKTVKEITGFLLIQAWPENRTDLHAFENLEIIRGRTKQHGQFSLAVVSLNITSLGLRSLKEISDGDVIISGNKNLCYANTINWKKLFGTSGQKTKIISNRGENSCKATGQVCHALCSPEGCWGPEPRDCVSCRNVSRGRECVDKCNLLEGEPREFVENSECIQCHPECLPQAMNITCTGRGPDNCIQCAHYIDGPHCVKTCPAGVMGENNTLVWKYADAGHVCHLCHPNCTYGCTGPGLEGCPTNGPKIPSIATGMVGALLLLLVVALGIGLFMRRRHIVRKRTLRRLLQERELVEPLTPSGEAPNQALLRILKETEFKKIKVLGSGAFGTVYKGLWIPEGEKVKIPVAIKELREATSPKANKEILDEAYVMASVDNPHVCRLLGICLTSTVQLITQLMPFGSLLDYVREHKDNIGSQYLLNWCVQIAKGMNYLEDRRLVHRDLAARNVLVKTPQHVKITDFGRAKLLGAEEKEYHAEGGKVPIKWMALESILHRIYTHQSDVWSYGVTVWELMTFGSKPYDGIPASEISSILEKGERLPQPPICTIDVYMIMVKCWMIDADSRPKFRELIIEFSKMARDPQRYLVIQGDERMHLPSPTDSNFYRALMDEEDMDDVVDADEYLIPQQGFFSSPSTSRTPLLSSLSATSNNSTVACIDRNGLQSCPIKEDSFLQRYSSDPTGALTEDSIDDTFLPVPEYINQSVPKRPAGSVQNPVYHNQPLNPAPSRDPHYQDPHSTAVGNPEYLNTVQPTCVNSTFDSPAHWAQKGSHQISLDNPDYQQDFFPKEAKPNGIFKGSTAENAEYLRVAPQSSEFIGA
T3 sequence (P00533 with tags, fused parts or gaps DEL746-750/T790M/C797S limits assumed): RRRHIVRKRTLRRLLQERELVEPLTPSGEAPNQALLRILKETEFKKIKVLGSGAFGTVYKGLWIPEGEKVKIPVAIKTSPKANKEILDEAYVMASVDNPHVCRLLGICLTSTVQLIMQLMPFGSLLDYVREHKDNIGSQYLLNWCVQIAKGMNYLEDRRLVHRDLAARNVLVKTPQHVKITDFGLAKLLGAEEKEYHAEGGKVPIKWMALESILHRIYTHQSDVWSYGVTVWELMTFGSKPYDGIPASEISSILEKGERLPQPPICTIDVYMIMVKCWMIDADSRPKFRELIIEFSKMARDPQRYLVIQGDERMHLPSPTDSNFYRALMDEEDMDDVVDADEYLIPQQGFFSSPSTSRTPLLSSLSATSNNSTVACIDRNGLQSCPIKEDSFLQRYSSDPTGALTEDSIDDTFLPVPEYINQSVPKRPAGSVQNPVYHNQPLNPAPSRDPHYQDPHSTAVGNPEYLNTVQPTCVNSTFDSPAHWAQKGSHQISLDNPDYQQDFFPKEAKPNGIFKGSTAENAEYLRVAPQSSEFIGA
T6 sequence (P00533 with tags, fused parts or gaps DEL746-750/T790M limits assumed): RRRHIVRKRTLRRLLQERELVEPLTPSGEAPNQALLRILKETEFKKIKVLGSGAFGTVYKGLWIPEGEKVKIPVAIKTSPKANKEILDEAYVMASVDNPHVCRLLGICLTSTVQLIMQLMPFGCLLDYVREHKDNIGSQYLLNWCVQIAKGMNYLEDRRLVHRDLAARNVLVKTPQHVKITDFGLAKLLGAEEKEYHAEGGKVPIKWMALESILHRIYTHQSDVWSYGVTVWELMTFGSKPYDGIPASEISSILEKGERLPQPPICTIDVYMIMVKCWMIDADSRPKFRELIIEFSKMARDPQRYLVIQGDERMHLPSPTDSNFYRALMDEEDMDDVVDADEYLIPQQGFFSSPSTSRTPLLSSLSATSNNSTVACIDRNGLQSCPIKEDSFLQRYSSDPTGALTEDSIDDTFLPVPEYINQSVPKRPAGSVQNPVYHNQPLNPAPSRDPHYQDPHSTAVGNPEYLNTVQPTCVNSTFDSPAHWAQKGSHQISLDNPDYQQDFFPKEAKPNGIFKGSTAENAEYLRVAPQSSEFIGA
T8 sequence (P00533 with tags, fused parts or gaps DEL746-750 limits assumed): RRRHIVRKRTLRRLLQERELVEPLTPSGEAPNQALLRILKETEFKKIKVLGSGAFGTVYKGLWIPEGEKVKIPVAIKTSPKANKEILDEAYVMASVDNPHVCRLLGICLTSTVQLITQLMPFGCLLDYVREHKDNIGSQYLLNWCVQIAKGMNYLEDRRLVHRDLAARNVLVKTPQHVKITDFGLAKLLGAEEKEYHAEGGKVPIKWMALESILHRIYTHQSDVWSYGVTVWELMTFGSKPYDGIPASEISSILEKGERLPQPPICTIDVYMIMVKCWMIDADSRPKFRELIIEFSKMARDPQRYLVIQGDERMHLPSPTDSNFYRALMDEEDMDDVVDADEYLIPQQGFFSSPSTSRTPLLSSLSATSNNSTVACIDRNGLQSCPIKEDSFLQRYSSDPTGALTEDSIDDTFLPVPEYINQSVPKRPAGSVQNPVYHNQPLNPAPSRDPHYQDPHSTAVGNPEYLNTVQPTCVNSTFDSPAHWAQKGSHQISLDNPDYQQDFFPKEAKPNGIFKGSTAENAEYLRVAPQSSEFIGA
T1 sequence (P00533 25-1210 T790M/C797S/L858R): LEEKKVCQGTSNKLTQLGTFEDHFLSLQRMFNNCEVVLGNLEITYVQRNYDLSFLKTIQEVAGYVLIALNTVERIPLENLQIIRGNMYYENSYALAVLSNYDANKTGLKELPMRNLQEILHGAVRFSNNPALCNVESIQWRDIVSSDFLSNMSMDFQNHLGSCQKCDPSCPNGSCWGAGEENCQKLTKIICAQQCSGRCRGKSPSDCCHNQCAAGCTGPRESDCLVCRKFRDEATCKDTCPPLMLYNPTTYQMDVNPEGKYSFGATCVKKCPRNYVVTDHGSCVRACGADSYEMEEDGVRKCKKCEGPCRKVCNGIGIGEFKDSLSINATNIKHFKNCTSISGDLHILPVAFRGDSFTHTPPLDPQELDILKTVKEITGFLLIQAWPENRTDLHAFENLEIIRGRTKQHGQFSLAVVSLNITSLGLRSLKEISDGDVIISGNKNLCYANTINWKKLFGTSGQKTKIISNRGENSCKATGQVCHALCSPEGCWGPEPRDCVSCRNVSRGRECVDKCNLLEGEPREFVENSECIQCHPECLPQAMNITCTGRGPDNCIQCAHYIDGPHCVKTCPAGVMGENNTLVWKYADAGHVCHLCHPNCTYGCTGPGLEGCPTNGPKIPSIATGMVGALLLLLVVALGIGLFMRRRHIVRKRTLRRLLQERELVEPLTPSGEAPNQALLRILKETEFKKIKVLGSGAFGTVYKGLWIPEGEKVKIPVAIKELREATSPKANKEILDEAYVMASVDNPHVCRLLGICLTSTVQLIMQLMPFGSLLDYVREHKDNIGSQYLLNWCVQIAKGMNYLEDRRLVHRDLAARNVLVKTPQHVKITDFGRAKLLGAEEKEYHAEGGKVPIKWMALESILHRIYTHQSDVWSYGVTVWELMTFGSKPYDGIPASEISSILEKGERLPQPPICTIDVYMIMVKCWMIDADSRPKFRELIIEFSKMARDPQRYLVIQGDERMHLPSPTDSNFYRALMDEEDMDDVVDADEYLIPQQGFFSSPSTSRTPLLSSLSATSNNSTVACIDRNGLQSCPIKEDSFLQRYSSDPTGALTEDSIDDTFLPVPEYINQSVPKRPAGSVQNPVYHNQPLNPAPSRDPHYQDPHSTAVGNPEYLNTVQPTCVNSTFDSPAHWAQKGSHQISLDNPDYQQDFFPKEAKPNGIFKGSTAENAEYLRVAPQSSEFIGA
T5 sequence (P00533 with tags, fused parts or gaps DEL746-750/C797S limits assumed): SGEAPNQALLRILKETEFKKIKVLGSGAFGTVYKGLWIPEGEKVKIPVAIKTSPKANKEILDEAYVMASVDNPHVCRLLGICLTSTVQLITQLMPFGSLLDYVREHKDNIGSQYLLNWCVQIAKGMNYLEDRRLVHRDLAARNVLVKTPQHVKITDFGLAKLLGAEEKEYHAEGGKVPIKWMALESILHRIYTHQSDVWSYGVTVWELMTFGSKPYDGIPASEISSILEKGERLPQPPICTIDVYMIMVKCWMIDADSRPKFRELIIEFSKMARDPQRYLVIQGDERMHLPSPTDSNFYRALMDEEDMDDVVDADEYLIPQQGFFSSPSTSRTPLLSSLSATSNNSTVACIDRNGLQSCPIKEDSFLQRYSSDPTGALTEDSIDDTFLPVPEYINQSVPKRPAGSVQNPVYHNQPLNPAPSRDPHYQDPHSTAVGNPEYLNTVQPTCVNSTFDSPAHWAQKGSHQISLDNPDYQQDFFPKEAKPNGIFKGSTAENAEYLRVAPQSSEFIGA

`CN1CCOC2(C1)CN(c1ccc3nc4n(c3c1)C13CCC(CN(CCOc5c(cnn5C)-c5cc(cn(C)c5=O)C(=O)N4)C1)C3)C2` (single isomer, unassigned) [Example A86B] gave an IC50 (EGFR[T790M/C797S/L858R]) of 8.1 nM, a GI50 [1, 3] of 0.71 nM and a GI50 [1, 4] of 1.9 nM. It also gave a GI50 [1, 5] of 2.4 nM, a GI50 [1, 6] of 5.2 nM and a GI50 [1, 7] of 4.2 nM. It also gave a GI50 [1, 8] of 10 nM, a GI50 [1, 9] of 1.2 nM and a GI50 (A-431; [10]) of 2670 nM. For the same compound, the IC50 (EGFR wild type) was 110 nM, the IC50 [2] was 8.5 nM and the IC50 (EGFR (C797S L858R)) was 14 nM. It also gave an IC50 (EGFR (d746-750 C797S)) of 3.9 nM, a GI50 (PC-9) of 26 nM and an IC50 (EGFR Exon19Del/T790M) of 9.5 nM. For the same compound, the IC50 (EGFR L858R/T790M) was 12 nM, the IC50 (EGFR Exon19Del) was 4 nM and the IC50 (EGFR L858R) was 16 nM.
`CN1CCC12CCN(c1ccc3nc4n(c3c1)C13CCC(CN(CCOc5c(cnn5C)-c5cc(cn(C)c5=O)C(=O)N4)C1)C3)CC2` (single isomer, unassigned) [Example A67B] showed an IC50 (EGFR[T790M/C797S/L858R]) of 1.1 nM, a GI50 [1, 3] of 0.64 nM and a GI50 [1, 4] of 0.92 nM. For the same compound, the GI50 [1, 5] was 0.79 nM, the GI50 [1, 6] was 1.9 nM and the GI50 [1, 7] was 0.84 nM. For the same compound, the GI50 [1, 8] was 3.5 nM, the GI50 [1, 9] was 1 nM and the GI50 (A-431; A-431 cells) was 712 nM. The IC50 (EGFR wild type) was 2.1 nM, the IC50 [2] was 1.2 nM and the IC50 (EGFR (C797S L858R)) was 1.2 nM. The IC50 (EGFR (d746-750 C797S)) was 0.48 nM, the GI50 (PC-9) was 2.5 nM and the IC50 (EGFR Exon19Del/T790M) was 1.3 nM. The IC50 (EGFR L858R/T790M) was 1.1 nM, the IC50 (EGFR Exon19Del) was 0.65 nM and the IC50 (EGFR L858R) was 1.1 nM.
Work on `C[C@@H]1CCCOc2c(cnn2C)-c2cc(cn(C)c2=O)C(=O)Nc2nc3ccc(N4CCN(C(=O)OC(C)(C)C)CC4)cc3n2C1` [Example A54] yielded an IC50 (EGFR[T790M/C797S/L858R]) of 10 nM, a GI50 ([1]; Mus musculus, BaF3, 72 h, BaF3 cells, EGFR DEL19-C797S, read-out: DEL19-C797S/BaF3 GI50) of 32 nM and a GI50 ([1]; Mus musculus, BaF3, 72 h, BaF3 cells, EGFR DEL19-T790-C797S, read-out: DEL19-T790-C797S/BaF3 GI50) of 104 nM. The GI50 ([1]; Mus musculus, BaF3, 72 h, BaF3 cells, EGFR L858R, read-out: L858R/BaF3 GI50) was 192 nM, the GI50 ([1]; Mus musculus, BaF3, 72 h, BaF3 cells, EGFR L858R-C797S, read-out: L858R-C797S/BaF3 GI50) was 188 nM and the GI50 ([1]; Mus musculus, BaF3, 72 h, BaF3 cells, EGFR L858R-T790-C797S, read-out: L858R-T790-C797S/BaF3 GI50) was 228 nM. It also gave a GI50 ([1]; Mus musculus, BaF3, 72 h, BaF3 cells, EGFR L858R-T790M, read-out: L858R-T790M/BaF3 GI50) of 288 nM, a GI50 ([1]; Mus musculus, BaF3, 72 h, EGFR DEL19-T790M, read-out: DEL19-T790M GI50) of 153 nM and a GI50 (A-431; [10]) of 1910 nM. It also gave an IC50 (EGFR wild type) greater than 5000 nM, an IC50 [2] of 31 nM and an IC50 (EGFR (C797S L858R)) of 887 nM. It also gave an IC50 (EGFR (d746-750 C797S)) of 41 nM, a GI50 (PC-9; Homo sapiens, PC-9, 72 h) of 245 nM and an IC50 (EGFR Exon19Del/T790M) of 31 nM. The IC50 (EGFR L858R/T790M) was 213 nM, the IC50 (EGFR Exon19Del) was 118 nM and the IC50 (EGFR L858R) was 3040 nM.
Compound `Cn1ncc2c1OCCN1CC3CCC(C3)(C1)n1c(nc3ccc(N4CC(N5CCOCC5)C4)cc31)NC(=O)c1cc-2c(=O)n(C)c1` (single isomer, unassigned) [Example A69B] has an IC50 (EGFR[T790M/C797S/L858R]) of 3 nM, a GI50 [1, 3] of 0.62 nM and a GI50 [1, 4] of 1.3 nM. For the same compound, the GI50 [1, 5] was 2.9 nM, the GI50 [1, 6] was 3.6 nM and the GI50 [1, 7] was 2 nM. The GI50 [1, 8] was 10 nM, the GI50 [1, 9] was 2 nM and the GI50 (A-431; A-431 cells) was 776 nM. For the same compound, the IC50 (EGFR wild type) was 291 nM, the IC50 [2] was 2.2 nM and the IC50 (EGFR (C797S L858R)) was 14 nM. For the same compound, the IC50 (EGFR (d746-750 C797S)) was 1.2 nM, the GI50 (PC-9) was 4.9 nM and the IC50 (EGFR Exon19Del/T790M) was 2 nM. The IC50 (EGFR L858R/T790M) was 2.8 nM, the IC50 (EGFR Exon19Del) was 2.9 nM and the IC50 (EGFR L858R) was 22 nM.
